# Data reported in patent publication US20240216490A1, “Autoantigens Engineered to Suppress Autoimmune Response” (Osprey Biopharmaceuticals, Inc., priority 2022, published 2024).
# Tests used:
# C57Bl/6 mice [1] = experiment: ex vivo flow cytometry of splenic adalimumab-specific and germinal center B cells (Example 13); type: in vivo, mouse
# Method: To measure B cell activation following the described stimulation, cells were washed twice by spinning cells at 1200 rpm for 5 minutes and rinsing with PBS. Cells were then resuspended in staining buffer (1% bovine serum albumin/0.1% sodium azide/1× phosphate buffered saline) and incubated with Fc-block (BD Biosciences) for five minutes before the addition of anti-CD45, anti-CD19, anti-CD69, and anti-CD86 antibodies (BD Biosciences, Biolegend, Fisher). Cells were then incubated in the dark for an additional 30 minutes at room temperature. Cells were then washed three times with staining buffer and then analyzed on a ZE5 Cell Analyzer (BioRad). Data analysis was performed using FlowJo (v10.8.0) software.
# For studies evaluating the generation of adalimumab-specific B cells, C57Bl/6 mice were dosed with a single subcutaneous dose of either SigL-adalimumab (4 mg/kg) or unconjugated adalimumab (4 mg/kg). Splenocytes were then isolated from animals seven days after dosing. In the experiment depicted in FIG. 15, mice that had been dosed with unconjugated adalimumab (4 mg/kg) on Day 0 were dosed again on Day 3 with SigL-adalimumab (4 mg/kg, subcutaneous) or vehicle (PBS) prior to splenocyte isolation on Day 7 of the study.
# For the evaluation of germinal center formation (FIG. 14), C57Bl/6 mice were dosed with a single subcutaneous dose of either SigL-adalimumab (4 mg/kg), unconjugated adalimumab (4 mg/kg) or vehicle (PBS) on Day 0. Animals in each arm of this study were then dosed on Day 7 with either a single subcutaneous dose of SigL-adalimumab (4 mg/kg) or unconjugated adalimumab (4 mg/kg). Formation of adalimumab-specific B cells and germinal center B cells were then analyzed on Day 14 of the study as described below.
# At the specified time points described above, splenocytes were harvested from individual animals and made into single cell suspension, subjected to red cell lysis using ACK buffer, and plated at a concentration of 200,000 cells per well in round bottom 96 well plates in complete RPMI media. Cells were then processed for flow cytometry as described above. For adalimumab-specific B cells, splenocytes were stained with anti-CD4, ant-CD8a, anti-F4/80, anti-LY6G, anti-CD19, anti-IgD (BD Biosciences, Biolegend, Fisher, eBioscience) and adalimumab-[…] conjugate (Invitrogen). For germinal center B cells, splenocytes were stained with anti-CD45, anti-CD19, anti-GL7, and anti-CD95. Cells were then incubated in the dark for an additional 30 minutes at room temperature. Cells were then washed three times with staining buffer and then analyzed on a ZE5 Cell Analyzer (BioRad). Data analysis was performed using FlowJo (v10.8.0) software.
# C57Bl/6 mice [2] = experiment: ADA response to adalimumab-anti-mouse CD22 scFv fusion protein in mice (Example 15); type: in vivo; conditions: after a single 4 mg/kg dose
# Text: To evaluate the production of antibodies specific to adalimumab and/or adalimumab-anti-mouse CD22 scFv fusion protein, 8 week old female C57BL/6 mice (n=5 per group) were immunized through intravenous injection with adalimumab or adalimumab-anti-mouse CD22 scFv fusion protein. On study day −1, animals were randomized into treatment groups based on body weight. On study day 0, animals were bled for baseline serum and then injected IV with adalimumab or adalimumab-anti-mouse CD22 scFv fusion protein. Animals were dosed […] with 4 mg/kg of adalimumab or adalimumab-anti-mouse CD22 scFv fusion protein. Animals were bled via the retro-orbital sinus weekly throughout the study under inhaled isoflurane anesthesia. On study day, 28 animals were anesthetized with inhaled isoflurane anesthesia and then bled via cardiac puncture and then sacrificed by cervical dislocation. […]
# ADA assays were performed on 96-well assay plates (Nunc Plates, Black 96-Well Immuno Plates, Thermo Scientific, 437111) coated with antigen, as follows. […] The excitation and emission settings for the QuantaBlu Fluorogenic Peroxide Substrates are 325 nm and 420 nm and the relative florescence units were measured using a SpectraMax plate reader. […] Titers were determined by the dilution of serum that gives a 2× OD above background.
substance,measurement,setting,value
adalimumab,presence of adalimumab-specific B cells (CD45+CD19+IgD−Adal+) in spleen,C57Bl/6 mice [1]; 7 days post single 4 mg/kg s.c. dose,detected
same,splenic adalimumab-specific B cells,"C57Bl/6 mice [1]; day 14, s.c. dosing days 0 and 7, conjugate day 0 followed by adalimumab day 7",induces
same,mean abundance of adalimumab-specific B cells,"C57Bl/6 mice [1]; spleen, 7 days post single 4 mg/kg s.c. dose",0.2 % of splenic IgD^− B cells
same,germinal center B cells (CD19+CD95+GL7+),"C57Bl/6 mice [1]; spleen, day 14, dosing days 0 and 7",increase in the abundance of germinal center B cells
same,immunogenicity in mice (immunoglobulin response),C57Bl/6 mice [2],highly immunogenic
